Patent US20120202756A1, “USE OF PRODRUGS TO AVOID GI MEDIATED ADVERSE EVENTS” (priority 2009, published 2012)
pIC50: −log10 of the molar value. ≈ marks a conversion by molar mass, not a printed value. Where “and” joins values, the source holds several entries; their conditions need not be identical. Equal values may be shown once. Read-outs that look alike come from different tables or passages of the source.

What was measured:
[1] = target: human acetylcholineesterase (Homo sapiens, UniProt P22303); test: Human acetylcholineesterase activity in vitro assay (CEREP); format: biochemical
human acetylcholineesterase, sequence (P22303 32-614): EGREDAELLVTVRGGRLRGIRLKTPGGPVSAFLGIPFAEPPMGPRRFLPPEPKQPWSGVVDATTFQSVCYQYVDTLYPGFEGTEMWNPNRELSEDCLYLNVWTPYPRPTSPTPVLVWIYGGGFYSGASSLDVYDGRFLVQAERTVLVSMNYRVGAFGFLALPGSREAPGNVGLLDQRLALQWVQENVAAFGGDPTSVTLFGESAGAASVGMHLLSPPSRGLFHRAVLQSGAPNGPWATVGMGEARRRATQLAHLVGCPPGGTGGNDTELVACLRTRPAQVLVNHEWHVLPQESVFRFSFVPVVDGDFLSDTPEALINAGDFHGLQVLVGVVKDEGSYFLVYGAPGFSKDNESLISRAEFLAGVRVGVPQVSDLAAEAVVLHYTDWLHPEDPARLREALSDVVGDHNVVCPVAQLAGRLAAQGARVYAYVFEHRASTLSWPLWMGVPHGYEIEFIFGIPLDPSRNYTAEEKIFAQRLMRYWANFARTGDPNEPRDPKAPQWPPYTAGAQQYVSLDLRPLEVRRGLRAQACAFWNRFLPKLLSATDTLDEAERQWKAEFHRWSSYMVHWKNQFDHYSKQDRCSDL

[2] = Stability in simulated intestinal juice (FaSSIF); format: in vitro ADME; conditions: FaSSIF pH 6.5, pancreatin 1%, prodrug 20 μg/mL
Experimental: (§1) To avoid direct interaction between the active drug and the gut microfloral population, the prodrug should not undergo premature chemical or enzymic cleavage back to the parent dug while within the gut lumen. To confirm this the prodrugs were incubated with USP SGF (simulated gastric fluid), FeSSIF (fed state simulated intestinal fluid) and FaSSIF (fasted state simulated intestinal fluid) and remaining prodrug and any generated active drug assayed by use of a qualified LC-MS/MS analytical method.
(§2) Method—Prodrug (20 μg/mL) in the FaSSIF cocktail comprising sodium taurocholate 3 mM, lecithin 0.75 mM, NaOH 8.7 mM, NaH2PO4. H2O 28.7 mM, NaCl 106 mM, pancreatin 1% (overall pH 6.5) was incubated for 2 h at 37° C. After acidifying the incubation to stop any reaction the amount of prodrug remaining and drug generated were determined using a qualified LC-MS/MS method.
(§3) To minimize the direct inhibitory action of this drug on gastric emptying/gut motility—and resultant nausea—the prodrug should not undergo premature chemical or enzymic cleavage back to the parent drug while within the gut lumen. To confirm this, the prodrugs were incubated with USP SGF (simulated gastric fluid), FeSSIF (fed state simulated intestinal fluid) and FaSSIF (fasted state simulated intestinal fluid) and remaining prodrug, and any generated active drug, assayed by use of a qualified LC-MS/MS analytical method.
as §2, with “Prodrug” for “Method—Prodrug”
as §1, with “gut,” for “gut microfloral population,”

[3] = Bioavailability of donepezil from its prodrugs in the cynomolgus monkey; conditions: relative bioavailability of donepezil vs dosing donepezil itself, male monkeys
From the text: (§4) Subsequent pharmacokinetic analysis was then undertaken using Win NonLin to generate the relevant PK parameters including Cmax, Tmax and AUC and T1/2.

[4] = Stability in simulated intestinal juice (FeSSIF); format: in vitro ADME; conditions: FeSSIF pH 5.0, pancreatin 1%
Experimental: as §1
Pancreatin was again added at 1%.
as §3
as §1, with “gut,” for “gut microfloral population,”

[5] = Bioavailability of donepezil from its prodrugs in the male beagle dog; conditions: relative bioavailability of donepezil vs dosing donepezil itself, male dogs
From the text: as §4

[6] = Stability in USP simulated gastric juice; format: in vitro ADME; conditions: USP SGF pH 1.1, pepsin […], prodrug 20 μg/mL
From the text: To minimize the direct inhibitory action of this drug on gastric emptying/gut motility—and resultant nausea—the prodrug should not undergo premature chemical or enzymic cleavage back to the parent drug while within the gut lumen.

[7] = test system: Clostridium bifermentans; test: MIC agar dilution; format: cell-based; conditions: Paraclostridium bifermentans, ATCC638
[8] = test system: Clostridium sporogenes; test: MIC agar dilution; format: cell-based; conditions: ATCC3584, ATCC 3584
[9] = test system: Prevotella denticola; test: MIC agar dilution; format: cell-based; conditions: clinical isolate
[10] = test system: Peptostreptococcus anaerobius; test: MIC agar dilution; format: cell-based; conditions: NCTC11460
[11] = test system: Veillonella atypical; test: MIC agar dilution; format: cell-based; conditions: NCTC11830
[12] = test system: Helicobacter pylori; test: MIC agar dilution
[13] = test system: Peptostreptococcus micros; test: MIC agar dilution; format: cell-based; conditions: Parvimonas micra; clinical isolate
[14] = test system: Bifidobacterium adolescentis; test: MIC agar dilution; format: cell-based; conditions: NCTC11814
[15] = test system: Campylobacter coli; test: MIC agar dilution
[16] = Bioavailability of metronidazole from its prodrugs in the rat; conditions: male, Sprague Dawley, rat, in vivo, po
Experimental: In order to confirm successful absorption and subsequent hydrolysis of these metronidazole prodrugs, a comparative bioavailability study was undertaken in the rat Methods—Three groups of five male Sprague Dawley rats were orally dosed with either metronidazole itself or its succinyl valine or glutaryl para-amino benzoic acid ester prodrugs. Serial tail vein blood samples were subsequently collected via an indwelling cannuala into EDTA tubes containing a stabilising cocktail (including 6 mg/mL NaF) to prevent post collection enzymic hydrolysis of the prodrug. Separated plasma samples were subjected to bioanalysis for both the prodrugs and metronidazole itself using a qualified LC/MS-MS bioanalytical method.

[17] = test system: Clostridium perfringens; test: microbe, parasite or virus in culture; format: cell-based
[18] = test system: Bifidobacterium longum; test: MIC agar dilution; format: cell-based; conditions: NCTC11818
[19] = test system: Porphyromonas endodontalis; test: MIC agar dilution; format: cell-based; conditions: clinical isolate
[20] = test system: Prevotella bivia; test: MIC agar dilution; format: cell-based; conditions: ATCC29303, ATCC 29303
[21] = test system: Clostridium difficile; test: MIC agar dilution; format: cell-based; conditions: Clostridioides difficile
[22] = test system: Bifidobacterium dentium; test: MIC agar dilution; format: cell-based; conditions: NCTC11816
[23] = test system: Eggerthella lenta; test: MIC agar dilution; format: cell-based; conditions: ATCC43055, ATCC 43055
[24] = test system: Fusobacterium necrophorum; test: MIC agar dilution; format: cell-based; conditions: clinical isolate
[25] = test system: Propionibacterium acnes; test: MIC agar dilution
[26] = test system: Veillonella spp.; test: MIC agar dilution; format: cell-based; conditions: clinical isolate
[27] = test system: Peptostreptococcus magnus; test: MIC agar dilution; format: cell-based; conditions: Finegoldia magna; clinical isolate
[28] = test system: Veillonella parvula; test: MIC agar dilution; format: cell-based; conditions: NCTC11810
[29] = test system: Clostridium sordellii; test: MIC agar dilution; format: cell-based; conditions: Paraclostridium sordellii, NCTC13356; NCTC 13356
[30] = test system: Bacteroides thetaiotamicron; test: MIC agar dilution; format: cell-based
[31] = test system: Bacteroides fragilis; test: MIC agar dilution
[32] = test system: Campylobacter jejuni; test: MIC agar dilution
[33] = test system: Porphyromonas assacharolyticus; test: MIC agar dilution; format: cell-based; conditions: clinical isolate
[34] = test system: Clostridium novyi; test: MIC agar dilution; format: cell-based; conditions: ATCC19402
[35] = clinical isolate (first listed, r83)
[36] = clinical isolate (second listed, r85)
[37] = NCTC13366, NCTC 13366 - NAP1/027
[38] = antibiotic-susceptible clinical isolate
[39] = clinical isolate MIC clindamycin 0.5 mg/L

COc1cc2c(cc1OC)C(OC(=O)CCCC(=O)O)=C(CC1CCN(Cc3ccccc3)CC1)C2 [Donepezil glutaryl enol ester, Donepezil-(Glutaryl) enol ester]
pIC50 [1]: 6.08

COc1cc2c(cc1OC)C(OC(=O)CCCC(=O)N[C@H](C(N)=O)C(C)C)=C(CC1CCN(Cc3ccccc3)CC1)C2 [Donepezil glutaryl valinamide, donepezil[glutaryl-(S)-valinamide]enol ester]
Simulated intestinal juice (2 h, 37° C.) (FaSSIF) % active drug generated [2]: <2.0%
Frel ([3]; individual animals): 97% and 44% and 99% and 64% and 89%
Frel ([3]; mean): 79%
Simulated intestinal juice (2 h, 37° C.) (FeSSIF) % active drug generated [4]: <2.0%
Frel ([5]; individual animals): 85% and 25% and 62% and 44% and 28%
Frel ([5]; mean): 49%
Simulated gastric juice (1 h, 37° C.) % active drug generated [6]: <2.0%

Cc1ncc([N+](=O)[O-])n1CCOC(=O)CCC(=O)N[C@H](C(=O)O)C(C)C [Metronidazole succinyl valine ester, Metronidazole-[succinyl-(S)-valine]ester]
MIC [7]: > 64 µg/mL
MIC [8]: 32 µg/mL (≈ 86.4 µM)
MIC [9]: > 64 µg/mL
MIC [10]: 32 µg/mL (≈ 86.4 µM)
MIC [11]: > 64 µg/mL
MIC [12, 35]: 64 µg/mL (≈ 173 µM)
MIC [12, 36]: 64 µg/mL (≈ 173 µM)
MIC [13]: 64 µg/mL (≈ 173 µM)
MIC [14]: > 64 µg/mL
MIC [15]: > 64 µg/mL
MIC ([15]; ATCC33559): > 64 µg/mL
Tmax [16]: 2.0 h
MIC [17]: > 64 µg/mL
MIC ([17]; ATCC13124): > 64 µg/mL
MIC [18]: > 64 µg/mL
MIC [19]: > 64 µg/mL
MIC [20]: > 64 µg/mL
MIC ([21]; ATCC700057, ATCC 700057): 32 µg/mL (≈ 86.4 µM)
MIC [21, 37]: 64 µg/mL (≈ 173 µM)
MIC [21, 38]: 32 µg/mL (≈ 86.4 µM)
MIC [22]: > 64 µg/mL
MIC [23]: > 64 µg/mL
MIC [24]: 32 µg/mL (≈ 86.4 µM)
MIC ([25]; Cutibacterium acnes): > 64 µg/mL
MIC [25, 39]: >64 µg/mL
MIC [26]: > 64 µg/mL
MIC [27]: 64 µg/mL (≈ 173 µM)
MIC [28]: > 64 µg/mL
MIC [29]: > 64 µg/mL
MIC ([30]; ATCC29741): > 64 µg/mL
MIC ([30]; NCTC10582): > 64 µg/mL
MIC [31]: > 64 µg/mL
MIC ([31]; ATCC25285): > 64 µg/mL
MIC [32]: > 64 µg/mL
MIC ([32]; ATCC33560): > 64 µg/mL
MIC [33]: > 64 µg/mL
MIC [34]: > 64 µg/mL

Cc1ncc([N+](=O)[O-])n1CCOC(=O)CCCC(=O)Nc1ccc(C(=O)O)cc1 [Metronidazole glutaryl PABA ester, Metronidazole-(glutaryl-PABA) ester]
MIC [7]: 64 µg/mL (≈ 158 µM)
MIC [8]: 8 µg/mL (≈ 19.8 µM)
MIC [9]: 64 µg/mL (≈ 158 µM)
MIC [10]: 16 µg/mL (≈ 39.6 µM)
MIC [11]: > 64 µg/mL
MIC [12, 35]: 32 µg/mL (≈ 79.1 µM)
MIC [12, 36]: 16 µg/mL (≈ 39.6 µM)
MIC [13]: 8 µg/mL (≈ 19.8 µM)
MIC [14]: > 64 µg/mL
MIC [15]: > 64 µg/mL
MIC ([15]; ATCC33559): 64 µg/mL (≈ 158 µM)
Tmax [16]: 2.0 h
MIC [17]: > 64 µg/mL
MIC ([17]; ATCC13124): > 64 µg/mL
MIC [18]: > 64 µg/mL
MIC [19]: 4 µg/mL (≈ 9.89 µM)
MIC [20]: 32 µg/mL (≈ 79.1 µM)
MIC ([21]; ATCC700057, ATCC 700057): 8 µg/mL (≈ 19.8 µM)
MIC [21, 37]: 16 µg/mL (≈ 39.6 µM)
MIC [21, 38]: 8 µg/mL (≈ 19.8 µM)
MIC [22]: > 64 µg/mL
MIC [23]: 32 µg/mL (≈ 79.1 µM)
MIC [24]: 8 µg/mL (≈ 19.8 µM)
MIC ([25]; Cutibacterium acnes): > 64 µg/mL
MIC [25, 39]: >64 µg/mL
MIC [26]: > 64 µg/mL
MIC [27]: 16 µg/mL (≈ 39.6 µM)
MIC [28]: > 64 µg/mL
MIC [29]: 64 µg/mL (≈ 158 µM)
MIC ([30]; ATCC29741): > 64 µg/mL
MIC ([30]; NCTC10582): > 64 µg/mL
MIC [31]: > 64 µg/mL
MIC ([31]; ATCC25285): > 64 µg/mL
MIC [32]: > 64 µg/mL
MIC ([32]; ATCC33560): 64 µg/mL (≈ 158 µM)
MIC [33]: 8 µg/mL (≈ 19.8 µM)
MIC [34]: 32 µg/mL (≈ 79.1 µM)
